One series deals with T1, UGT1A7 (Homo sapiens, UniProt Q9HAW7).
T1 construct: purchased BD Gentest
T1 sequence (Q9HAW7 26-530): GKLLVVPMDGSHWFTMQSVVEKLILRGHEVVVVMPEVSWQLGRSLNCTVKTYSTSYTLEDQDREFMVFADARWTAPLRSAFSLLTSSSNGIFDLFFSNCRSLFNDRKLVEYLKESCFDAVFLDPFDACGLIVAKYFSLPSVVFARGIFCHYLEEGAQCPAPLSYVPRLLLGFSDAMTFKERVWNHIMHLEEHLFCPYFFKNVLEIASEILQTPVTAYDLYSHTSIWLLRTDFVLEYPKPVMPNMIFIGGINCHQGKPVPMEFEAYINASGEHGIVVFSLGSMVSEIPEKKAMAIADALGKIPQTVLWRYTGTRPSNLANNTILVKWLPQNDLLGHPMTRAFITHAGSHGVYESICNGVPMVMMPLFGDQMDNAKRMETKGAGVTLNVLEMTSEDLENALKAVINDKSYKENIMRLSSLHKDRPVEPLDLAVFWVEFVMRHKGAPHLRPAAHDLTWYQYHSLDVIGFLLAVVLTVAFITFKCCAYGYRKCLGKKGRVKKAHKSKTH
Put plainly: SN-38 glucuronidation by human recombinant UGT1A7, with and without panobinostat. In kind it is in vitro ADME. The conditions noted are these: UGT1A7, panobinostat 20 and 200 nmol/L; CLint increases insignificant (p > 0.05). The procedure: (§1) UGT1A1, UGT1A6 and UGT1A7 were chosen since these UGTs could be responsible for glucuronidating panobinostat.
(§2) All experiments were carried out in triplicate. […] Data were considered statistically significant when p < 0.05.

For series [1] the following is noted: cited from earlier work.
The target of another series is T2, UGT1A6 (Homo sapiens, UniProt P19224).
T2 construct: purchased BD Gentest
T2 sequence (P19224 27-532): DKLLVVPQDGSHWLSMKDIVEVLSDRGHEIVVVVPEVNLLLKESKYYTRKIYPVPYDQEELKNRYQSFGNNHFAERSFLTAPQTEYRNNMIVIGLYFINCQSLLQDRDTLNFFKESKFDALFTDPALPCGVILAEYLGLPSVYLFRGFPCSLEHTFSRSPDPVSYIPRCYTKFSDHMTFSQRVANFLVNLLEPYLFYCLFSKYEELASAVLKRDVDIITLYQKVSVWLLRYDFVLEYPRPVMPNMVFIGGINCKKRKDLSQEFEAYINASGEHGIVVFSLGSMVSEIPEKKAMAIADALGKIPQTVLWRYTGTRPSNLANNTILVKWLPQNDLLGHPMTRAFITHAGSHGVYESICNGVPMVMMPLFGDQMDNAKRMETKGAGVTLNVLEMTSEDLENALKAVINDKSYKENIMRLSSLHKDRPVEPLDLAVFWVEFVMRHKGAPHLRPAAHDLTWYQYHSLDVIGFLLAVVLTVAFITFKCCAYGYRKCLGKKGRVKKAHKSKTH
As to the kind of experiment: SN-38 glucuronidation by human recombinant UGT1A6, with and without panobinostat. The series is classed as in vitro ADME. Particulars: UGT1A6, panobinostat 20 and 200 nmol/L; CLint increases insignificant (p > 0.05). As for the experimental part:
as §1, §2

Series [2] addresses T3, UGT1A1 (Homo sapiens, UniProt P22309).
T3 sequence (P22309 26-533): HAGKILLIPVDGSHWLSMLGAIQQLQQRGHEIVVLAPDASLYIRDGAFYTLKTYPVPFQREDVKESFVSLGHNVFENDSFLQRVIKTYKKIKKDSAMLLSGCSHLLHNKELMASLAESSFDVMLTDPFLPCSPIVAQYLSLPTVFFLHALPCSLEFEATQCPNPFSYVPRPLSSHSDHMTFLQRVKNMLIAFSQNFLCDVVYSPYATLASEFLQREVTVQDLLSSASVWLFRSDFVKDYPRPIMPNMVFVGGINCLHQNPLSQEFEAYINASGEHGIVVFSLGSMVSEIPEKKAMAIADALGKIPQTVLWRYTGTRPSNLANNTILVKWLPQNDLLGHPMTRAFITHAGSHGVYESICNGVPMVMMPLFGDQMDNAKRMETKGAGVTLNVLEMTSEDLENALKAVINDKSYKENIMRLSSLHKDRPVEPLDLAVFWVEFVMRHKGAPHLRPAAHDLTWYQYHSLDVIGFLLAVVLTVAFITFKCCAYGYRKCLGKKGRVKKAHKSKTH
As to the kind of experiment: SN-38 glucuronidation (SN-38G formation) by human recombinant UGT1A1, with and without HDACi. In kind it is in vitro ADME. The conditions noted are these: for decrease of CLint: p < 0.05. The procedure:
as §1, §2

For series [3], the system named is pooled HLMs (50 donor pool, wild-type 6/6 genotype). As to the kind of experiment: SN-38 glucuronidation by pooled HLMs, 50 donor pool (wild type, 6/6), with and without belinostat. The conditions noted are these: for decrease of CLint: 50 donor pool HLMs (6/6), p < 0.05. In kind it is in vitro ADME, human. The procedure: as §2
The target in series [4] is T4, pooled HLMs (UGT1A1*28*28 allelic variant, 7/7) (Homo sapiens, UniProt P22309).
T4 sequence (P22309 26-533): T3 sequence (P22309 26-533)
Procedure: (§3) Ten microliter aliquots were injected into a high-performance liquid chromatograph assay system (Agilent 1100, Germany) with tandem mass spectrometric detection (API 4000 triple-quadrupole mass spectrometer; AB Sciex, Concord, Canada). Baseline separation of the analytes was achieved on the Alltima C18 (150 mm x 2.1 mm, 5 μm) column. The mobile phase A and B consisted of 100% acetonitrile and 0.1% formic acid, respectively.
(§4) After pre-incubation, the reaction was started with the addition of UGT1A1 or pooled HLMs (0.5 mg/mL). Reaction mixtures were incubated at 37°C for 30 minutes.
(§5) All experiments were carried out in triplicate. SN-38G formation velocity (ν) was calculated as Cm, 30 min/incubation time/microsomal protein concentration, where Cm, 30 min was the metabolite concentration after 30 min incubation. Plots of substrate concentration, S (X axis) versus ν (Y axis) were then constructed. Km and Vmax were calculated by the Michaelis-Menten Equation 1 below using GraphPad software v5.01 (GraphPad Software, Inc., San Diego, CA, USA). The kinetic parameter Vmax/Km, which is equivalent to intrinsic clearance (CLint) (Equation 2), was derived from the slope of the plot of the rate of product formation versus substrate concentration. Comparisons of CLint between two groups were performed by a paired t-test.

For series [5], the target named is T5, pooled HLMs (UGT1A1*1*28 allelic variant, 6/7) (Homo sapiens, UniProt P22309).
T5 sequence (P22309 26-533): T3 sequence (P22309 26-533)
Procedure: as §3, §4, §5

Another series addresses T6, UGT1A9 (Homo sapiens, UniProt O60656).
T6 construct: purchased BD Gentest
T6 sequence (O60656 26-530): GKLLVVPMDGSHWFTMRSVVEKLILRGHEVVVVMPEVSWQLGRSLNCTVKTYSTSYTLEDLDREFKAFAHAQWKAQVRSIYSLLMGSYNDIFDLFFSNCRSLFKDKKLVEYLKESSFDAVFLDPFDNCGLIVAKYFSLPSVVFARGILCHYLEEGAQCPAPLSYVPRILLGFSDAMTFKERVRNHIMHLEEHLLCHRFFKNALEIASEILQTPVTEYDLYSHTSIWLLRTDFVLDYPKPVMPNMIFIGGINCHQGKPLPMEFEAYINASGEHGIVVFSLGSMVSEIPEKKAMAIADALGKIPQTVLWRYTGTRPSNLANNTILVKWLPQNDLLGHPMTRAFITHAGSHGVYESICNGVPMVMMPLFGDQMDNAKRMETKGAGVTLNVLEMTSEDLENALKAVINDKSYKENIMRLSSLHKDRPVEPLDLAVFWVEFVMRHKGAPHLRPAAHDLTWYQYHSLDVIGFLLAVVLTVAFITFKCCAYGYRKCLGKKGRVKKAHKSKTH
As to the kind of experiment: SN-38 glucuronidation by human recombinant UGT1A9, with and without vorinostat. In kind it is in vitro ADME. The procedure:
as §2

The conditions of series [6]: more potent than irinotecan; cited from earlier work.
In series [7] the test system is UGT1A1. Put plainly: SN-38 glucuronidation by pooled HLMs, 50 donor pool (wild type, 6/6), with and without belinostat. The conditions noted are these: human, pH 7.4; 50 donor pool HLMs (6/6), without belinostat; read-out: intrinsic clearance (CLint) of SN-38G formation. The series is classed as in vitro ADME, human. As for the experimental part: as §2
For series [8], the target named is T3, UGT1A1. Put plainly: in vitro. The conditions noted are these: pooled liver microsomes, UGT1A1*1*28 (6/7) genotype, pH 7.4.
Procedure: as §3, §4, §5
In series [9] the target is T3, UGT1A1. Put plainly: in vitro. Particulars: pooled liver microsomes, UGT1A1*28*28 (7/7) genotype, pH 7.4.
Procedure: as §3, §4, §5

Where “and” joins values, the source holds several entries; their conditions need not be identical. Equal entries are not always repeated. Where two headings read alike, the source gives them in different places.

On to `Cc1[nH]c2ccccc2c1CCNCc1ccc(/C=C/C(=O)NO)cc1` [panobinostat], for which the “inhibitory effect on SN-38 glucuronidation” value on UGT1A7 was “not found to have any inhibitory effect”; at UGT1A6 it was “not found to have any inhibitory effect”; at UGT1A1 [2] (UGT1A1, panobinostat 20 and 200 nmol/L, CLint increases insignificant (p > 0.05)), “not found to have any inhibitory effect”. The Cmax in series [1] (intravenous administration) was 0.2 µM; in [1] (oral administration), 0.02 µM.

For `O=C(/C=C/c1cccc(S(=O)(=O)Nc2ccccc2)c1)NO` [belinostat], the Cmax in [1] (high-dose intravenous administration) is 200 µM; in series [1] (oral administration), 10 µM. Also, the “decrease of CLint” value in series [3] (belinostat 100 μmol/L vs none) is on record as 56%; in [3] (belinostat 200 μmol/L vs none) it was 68%; in [4] (UGT1A1*28*28 (7/7) HLMs, belinostat 200 μmol/L vs none, p < 0.05), 75%; in series [5] (UGT1A1*1*28 (6/7) HLMs, belinostat 200 μmol/L vs none, p < 0.05), 79%; on UGT1A1 [2] (recombinant UGT1A1, belinostat 100 μmol/L vs no belinostat) it was ~ 62%; at UGT1A1 [2] (recombinant UGT1A1, belinostat 200 μmol/L vs no belinostat), 81%. In addition, the “SN-38 glucuronidation activity (Vmax)” value in [3] (HLMs wild type 6/6, with belinostat 200 µmol/L) is given as 10.54 pmol/min/mg. Besides, the inhibition type entry is reported as “non-competitive inhibition” in series [3] (SN-38 glucuronidation by HLMs (6/6)), “non-competitive inhibition” in series [4] (SN-38 glucuronidation by HLMs (7/7)), “non-competitive inhibition” in series [5] (SN-38 glucuronidation by HLMs (6/7)) and “non-competitive” on UGT1A1 [2] (SN-38 glucuronidation by UGT1A1). The “decrease of SN-38G formation rate compared to wild type” value in series [4] (UGT1A1*28*28 (7/7) HLMs vs wild type 6/6, both with belinostat 200 μmol/L) is ~ 64% and ~ 68%; in [5] (UGT1A1*1*28 (6/7) HLMs vs wild type 6/6, both with belinostat 200 μmol/L), ~ 64%. In addition, the “rate of SN-38G formation (Vmax)” value is 3.30 pmol/min/mg in series [4] (UGT1A1*28*28 (7/7) HLMs, with belinostat 200 μmol/L) and 3.77 pmol/min/mg in series [5] (UGT1A1*1*28 (6/7) HLMs, with belinostat 200 μmol/L). Besides, the “interaction with irinotecan (SN-38 glucuronidation)” value on UGT1A1 [2] (belinostat 10 μmol/L, simulating oral dosing) is recorded as “would not have significant interactions”. At UGT1A1 [2] (recombinant UGT1A1, with belinostat (abstract: 100 and 200 µmol/L; lowest value, taken as 200 µmol/L)), the “Vmax of SN-38 glucuronidation” value turned out to be 1.95 pmol/min/mg.

Turning to `O=C(CCCCCCC(=O)Nc1ccccc1)NO` [vorinostat], the “inhibition of UGT1A9 (SN-38 glucuronidation)” value on UGT1A9 (vorinostat 2 µmol/L (therapeutic concentration)) was “no significant inhibition”.

In the case of `CCc1c2c(nc3ccc(O)cc13)-c1cc3c(c(=O)n1C2)COC(=O)[C@]3(O)CC` [SN-38, 7-ethyl-10-hydroxycamptothecin], the microsomal CLint is 7.48 µL/min/mg on UGT1A9 (human, recombinant UGT1A9, read-out: CLint of SN-38G); 81.2 µL/min/mg with UGT1A1 [7]; 29.2 µL/min/mg at UGT1A1 [8]; 21.6 µL/min/mg at UGT1A1 [2] (human, pH 7.4, recombinant UGT1A1, without belinostat, read-out: intrinsic clearance (CLint) of SN-38G formation); 5.4 µL/min/mg at UGT1A1 [9]. Also, the “potency relative to irinotecan” value in series [6] is recorded as 100-1000 times. Besides, the “SN-38 glucuronidation activity (Vmax)” value in [3] (HLMs wild type 6/6, without belinostat) was found to be 41.13 pmol/min/mg.
